The text below walks through data of ChEMBL document CHEMBL1130640, “Lactate cannot substitute for alanine in d4T-based anti-HIV nucleotide prodrugs--despite efficient esterase-mediated hydrolysis” (Bioorg Med Chem Lett, 1998).

Common to all, as to conditions: Homo sapiens
Experiment [1] deals with CEM-TK(-). As to the kind of experiment: Compound was tested for anti-HIV-2 activity in CEM/TK- cell line. It is filed as functional, cell-based.
Experiment [2] concerns CCRF-CEM. Nature of the experiment: Compound was tested for anti-HIV-2 activity in CEM/0 cell line. It is filed as functional, cell-based.
In experiment [3] the test system is CCRF-CEM. Nature of the experiment: Compound was tested for anti-HIV-1 activity in CEM/0 cell line. It is filed as functional, cell-based.
Experiment [4] deals with CCRF-CEM. Nature of the experiment: Compound was tested for cytostatic activity in CEM cell line. It is filed as functional.
The test system of experiment [5] is CEM-TK(-). Nature of the experiment: Compound was tested for anti-HIV-2 activity in CEM/TK- cell line. It is filed as functional, cell-based.
Experiment [6] relates to CCRF-CEM. Nature of the experiment: Compound was tested for anti-HIV-1 activity in CEM/0 cell line. It is filed as functional, cell-based.
The test system of experiment [7] is CCRF-CEM. As to the kind of experiment: Compound was tested for cytostatic activity in CEM cell line. It is filed as functional.
Experiment [8] deals with CCRF-CEM. Nature of the experiment: Compound was tested for anti-HIV-2 activity in CEM/0 cell line. It is filed as functional, cell-based.

Regarding `CCOC(=O)C(C)OP(=O)(OCC1C=CC(n2cc(C)c(=O)[nH]c2=O)O1)Oc1ccccc1` (centres undefined), the EC50 with CEM-TK(-) [1] was determined as 160 µM; in the experiment on CCRF-CEM [2] it was 23 µM; in the experiment on CCRF-CEM [3], 28 µM. In the experiment on CCRF-CEM [4], this compound yielded a cytotoxic concentration (CC50) of over 250 µM.
Consider `CCOC(=O)COP(=O)(OCC1C=CC(n2cc(C)c(=O)[nH]c2=O)O1)Oc1ccccc1` (centres undefined), for which the EC50 in the experiment on CEM-TK(-) [1] came out at 150 µM; in the experiment on CCRF-CEM [2], 12.5 µM; in the experiment on CCRF-CEM [3], 12.5 µM. Besides, in the experiment on CCRF-CEM [4], the half-maximal cytotoxic concentration (CC50) was at least 250 µM.
As for `COC(=O)C(C)OP(=O)(OCC1C=CC(n2cc(C)c(=O)[nH]c2=O)O1)Oc1ccccc1` (centres undefined), the EC50 in the experiment with CEM-TK(-) [1] is over 250 µM; in the experiment on CCRF-CEM [2] it was 5 µM; with CCRF-CEM [3], 4 µM. The compound also gave a cytotoxic concentration (CC50) in the experiment with CCRF-CEM [4] of at least 250 µM.
As for `COC(=O)COP(=O)(OCC1C=CC(n2cc(C)c(=O)[nH]c2=O)O1)Oc1ccccc1` (centres undefined), the values for the EC50 in the experiment on CEM-TK(-) [1], with CCRF-CEM [2] and in the experiment on CCRF-CEM [3] were over 250 µM, 50 µM and 27.5 µM, respectively. Further, in the experiment on CCRF-CEM [4], the CC50 is over 250 µM.
Compound `COC(=O)C(C)NP(=O)(OC[C@@H]1C=C[C@H](n2cc(C)c(=O)[nH]c2=O)O1)Oc1ccccc1` (some centres undefined) returned an EC50 with CEM-TK(-) [1] of 0.075 µM. For the same compound, in the experiment with CCRF-CEM [4], the CC50 was over 100 µM.
In the experiment on CEM-TK(-) [1], `COC(=O)CNP(=O)(OCC1C=CC(n2cc(C)c(=O)[nH]c2=O)O1)Oc1ccccc1` (centres undefined) returned an EC50 of 7 µM. Besides, the 50% cytotoxic concentration (CC50) with CCRF-CEM [4] was at least 250 µM.
`Cc1cn([C@H]2C=C[C@@H](CO)O2)c(=O)[nH]c1=O` [STAVUDINE]: the results for the 50% effective concentration (EC50) in the experiment with CEM-TK(-) [5], with CCRF-CEM [6] and with CCRF-CEM [8] were over 100 µM, 0.25 µM and 1.2 µM, respectively. Besides, the CC50 in the experiment on CCRF-CEM [7] was over 100 µM.

In general, EC50 refers to the concentration giving half of the maximal effect. Broadly, the CC50 is the concentration that lowers cell viability or growth by half.
